From article PMC10054553, “Development of the First ^18F-Labeled Radiohybrid-Based Minigastrin Derivative with High Target Affinity and Tumor Accumulation by Substitution of the Chelating Moiety” (Pharmaceutics, 2023)
Read-outs that look alike come from different tables or passages of the source. Values belong to the molecule of their own block, whether it stands above or below them.

Columns and labels:
[1] = Lipophilicity (logD7.4), n-octanol/PBS pH 7.4; type: physicochemical
Protocol: Cell-based experiments and determination of lipophilicity (logD7.4) were performed as previously published. A detailed description of the in vitro experiments is provided in the Supplementary Materials.
Cell Culture. CCK-2R-expressing rat pancreatic cancer cells AR42J (CLS GmbH, Eppelheim, Germany) were cultivated in monolayers in CELLSTAR® cell culture flasks acquired from Greiner Bio-One GmbH (Frickenhausen, Germany) at 37°C in a humidified atmosphere (5% CO2) using a HERAcell 150i-Incubator (Thermo Fisher Scientific Inc., Waltham, United States). The nutrient medium RPMI 1640 medium, supplemented with 5 mM L-Gln 5 mL non-essential amino acids (100×) and 10% FCS, was used. Furthermore, a Dulbecco’s PBS solution with 0.1% EDTA (v/v) was applied to detach the cells for cell passaging. The detached cells were counted using a Neubauer hemocytometer (Paul Marienfeld, Lauda-Königshofen, Germany). In addition, all operations under sterile conditions were accomplished using a MSC-Advantage safety workbench (Thermo Fisher Scientific Inc., Waltham, United States).
Determination of IC50. AR42J cells (2.0 × 10^5 cells/well) were seeded into 24-well plates 24 ± 2 h prior to testing using 1 mL of nutrient medium (RPMI 1640, 5 mM L-Gln, 5 mL non-essential amino acids (100×), 10% FCS). Cells were incubated at 37°C in a humidified atmosphere (5% CO2).
After the removal of the medium, each well was washed with 500 μL PBS. For the cell-based assay, 200 μL of the nutrient medium (+5% BSA), [ 177Lu]Lu-DOTA-PP-F11N (25 μL, 0.3 pmol) as a radiolabeled reference and 25 μL of the peptide of interest in increasing concentrations (10 −10 to 10−4 M) were added to the cells in triplicate. Thereafter, the assay was incubated for 3 h at 37°C and the supernatant was collected. The cells were washed with 300 μL PBS and the collected supernatant fractions were unified.
After lysis of the cells with NaOH (300 μL, 1 N) for 15 min, the respective wells were washed with NaOH (300 μ L, 1 N) and both fractions were unified. The radioactivity of both the supernatant and the lysed fractions were quantified using a γ-counter (PerkinElmer Inc., Waltham, United States). The obtained data were evaluated via the GraphPad PRISM software (GraphPad Software Inc., La Jolla, United States), which calculates the half-maximal inhibitory concentration (IC50) of the peptides.
Internalization Studies. For the determination of the internalization kinetics of the various peptides, AR42J cells (3.0 × 10^5 cells/well) were seeded into polylysine-coated 24-well plates, adding 1 mL of nutrient medium. Afterwards, the cells were incubated for 24 ± 2 h at 37°C in a humidified atmosphere […]
On the day of the experiment, the medium was removed, and each well was washed with nutrient medium (300 μL). Afterwards 200 μL of nutrient medium, 25 μL of the 177Lu-labeled peptide (0.3 pmol, n = 6) and either 25 μL of nutrient medium for internalization studies ( n = 3) or 25 μL of [natLu]Lu-DOTA-PP-F11N (10 μmol) for competition studies ( n = 3) were added. Thereafter, the assay was incubated for various time points (1, 2, 4 and 6 h) at 37°C in a humidified atmosphere (5% CO2). After incubation, the cells were put on ice for at least 1 min to stop internalization kinetics and the supernatant was collected. Then, the cells were washed with an ice-cold nutrient medium (300 μL) and both fractions were unified. […] The radioactivity of the supernatant, the acid wash and the lysed fractions were quantified using a γ-counter. […]

[2] = µPET/CT imaging in an AR42J tumor-bearing mouse; type: in vivo, mice; settings: 100 pmol, n = 1
Protocol: Biodistribution studies (n = 4) and µSPECT/CT as well as µPET/CT imaging (using a MILabs VECTor^4 small-animal SPECT/PET/OI/CT device, MILabs, Utrecht, The Netherlands) at 1 and 24 h p.i. were carried out as previously published. For all ^177Lu-labeled compounds, approximately 2–3 MBq (100 pmol)—and for the ^18F-labeled analog, approximately 7 MBq (100 pmol)—were administered. For all competition studies, 2.90 mg/kg (40 nmol) of [^natLu]Lu-DOTA-MGS5 (10^−3 M in phosphate-buffered saline) were co-administered.
Moreover, the chemically identical compound, [^18F]F-[^natLu]Lu-DOTA-rhCCK-18, was evaluated via µPET/CT in a AR42J tumor-bearing mouse (n = 1), which confirmed high tumor and kidney uptake at 1 h p.i. and low overall off-target accumulation (Figure 5, right).
Figure 5 Representative µSPECT/CT images of [^177Lu]Lu-DOTA-rhCCK-18 at 1 and 24 h p.i. (left) and µPET/CT image of [^18F]F-[^natLu]Lu-DOTA-rhCCK-18 at 1 h p.i. (right) in AR42J tumor-bearing CB17- SCID mice (100 pmol each). Tumors (T) are indicated by white arrows. Kidney (K) and tumor (T) values are depicted at the bottom. TEXT PRINTED IN THE PICTURE: [^177Lu]Lu-DOTA-rhCCK-18: T: 24.1 %ID/g (1 h p.i.); K: 97.2 %ID/g (1 h p.i.); T: 25.4 %ID/g (24 h p.i.); K: 134 %ID/g (24 h p.i.) | [^18F]F-[^natLu]Lu-DOTA-rhCCK-18: T: 31.2 %ID/g (1 h p.i.); K: 146 %ID/g (1 h p.i.)

[3] = Stability studies in human serum; type: in vitro ADME; settings: 37 °C; for SiOH-containing analog (%): 24 h, n = 3, analog with hydrolyzed SiFA moiety; for remaining at 24 h, 5 µM: human, n = 3, read-out: Intact peptide (%)
Protocol: In vitro stability studies in human serum after incubation at 37 °C for 24 h were performed as described in the Supplemental Material.
Stability Studies in Human Serum. The 177Lu- as well as 67Ga-labeled CCK-2R ligands (1 nmol,
approx. 5 MBq) were incubated for 24 h in human serum (200 μL) at 37 °C. After incubation, ice-cold
EtOH (125 μL) and MeCN (375 μL) were added and the suspension was centrifuged for 5 min at
5000 rpm. Then, the supernatant was transferred into new vials and centrifuged for another 5 min at
5000 rpm. After separating the precipitate from the solution, the stability of the ligands was determined

CCK-2R = target: T1, CCK-2R (Rattus norvegicus, UniProt P30553); set-up: method as in earlier work; settings: natLu-labeled peptide; AR42J cells, [177Lu]Lu-DOTA-PP-F11N 0.3 pmol/well, 3 h, 37 °C, n = 3; identical conditions; cited from earlier work
T1 construct: CCK-2R-expressing rat pancreatic cancer cells AR42J; host or cells: AR42J (rat pancreatic cancer cells)
T1 sequence (P30553 1-452): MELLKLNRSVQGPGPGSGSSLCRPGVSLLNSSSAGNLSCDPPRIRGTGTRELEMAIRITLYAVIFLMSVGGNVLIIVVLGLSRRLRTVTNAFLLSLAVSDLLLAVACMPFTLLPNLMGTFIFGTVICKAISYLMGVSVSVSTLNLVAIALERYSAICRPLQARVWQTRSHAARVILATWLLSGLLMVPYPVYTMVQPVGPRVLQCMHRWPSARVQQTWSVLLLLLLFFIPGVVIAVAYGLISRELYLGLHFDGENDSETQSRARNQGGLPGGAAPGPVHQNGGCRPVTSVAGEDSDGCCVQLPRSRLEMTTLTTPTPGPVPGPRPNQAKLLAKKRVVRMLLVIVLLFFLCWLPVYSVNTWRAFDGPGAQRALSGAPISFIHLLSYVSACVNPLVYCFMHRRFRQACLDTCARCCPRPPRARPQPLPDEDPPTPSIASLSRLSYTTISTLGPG

logD ([1]; pH 7.4): -3.95 ± 0.06
Structure (SMILES): CCCC[C@H](NC(=O)[C@H](Cc1c[nH]c2ccccc12)NC(=O)CNC(=O)[C@H](Cc1ccc(O)cc1)NC(=O)[C@H](C)NC(=O)[C@@H](CCC(=O)O)NC(=O)[C@@H](CCC(=O)O)NC(=O)[C@@H](CCC(=O)O)NC(=O)[C@@H](CCC(=O)O)NC(=O)[C@@H](CCC(=O)O)NC(=O)[C@@H](CCC(=O)O)NC(=O)CC[C@H](C(=O)O)N1CCN(CC(=O)O)CCN(CC(=O)O)CCN(CC(=O)O)CC1)C(=O)N[C@@H](CC(=O)O)C(=O)N[C@@H](Cc1ccccc1)C(N)=O [[^177Lu]Lu-(R)-DOTAGA-PP-F11N, metal not drawn]

Structure (SMILES): CCCC[C@H](NC(=O)[C@H](Cc1c[nH]c2ccccc12)NC(=O)CNC(=O)[C@H](Cc1ccc(O)cc1)NC(=O)[C@H](C)NC(=O)CC[C@@H](NC(=O)CC[C@@H](NC(=O)CC[C@@H](NC(=O)CC[C@@H](NC(=O)CC[C@@H](NC(=O)CC[C@@H](NC(=O)CC[C@@H](NC(=O)CC[C@@H](NC(=O)[C@@H](CNC(=O)c1ccc([Si](F)(C(C)(C)C)C(C)(C)C)cc1)NC(=O)CN1CCN(CC(=O)O)CCN(CC(=O)O)CCN(CC(=O)O)CC1)C(=O)O)C(=O)O)C(=O)O)C(=O)O)C(=O)O)C(=O)O)C(=O)O)C(=O)O)C(=O)N[C@@H](CC(=O)O)C(=O)N[C@@H](Cc1ccccc1)C(N)=O [[^18F]F-[^natLu]Lu-DOTA-rhCCK-18, metal not drawn]
tissue uptake at 1 h ([2]; CB17-SCID, mouse, kidney, total radioactivity, 1 h p.i., read-out: Kidney (K) value, µPET/CT): 146 %ID/g
tissue uptake at 1 h ([2]; CB17-SCID, mouse, tumor, total radioactivity, 1 h p.i., read-out: Tumor (T) value, µPET/CT): 31.2 %ID/g
tissue uptake at 1 h ([2]; bone, µPET/CT mouse, read-out: bone uptake): 1.69 %ID/g

Structure (SMILES): CCCC[C@H](NC(=O)[C@H](Cc1c[nH]c2ccccc12)NC(=O)CNC(=O)[C@H](Cc1ccc(O)cc1)NC(=O)[C@H](C)NC(=O)CC[C@@H](NC(=O)CC[C@@H](NC(=O)CC[C@@H](NC(=O)CC[C@@H](NC(=O)CC[C@@H](NC(=O)CC[C@@H](NC(=O)[C@@H](CNC(=O)c1ccc([Si](F)(C(C)(C)C)C(C)(C)C)cc1)NC(=O)CN1CCN(CC(=O)O)CCN(CC(=O)O)CCN(CC(=O)O)CC1)C(=O)O)C(=O)O)C(=O)O)C(=O)O)C(=O)O)C(=O)O)C(=O)N[C@@H](CC(=O)O)C(=O)N[C@@H](Cc1ccccc1)C(N)=O [[^67Ga]Ga-DOTA-rhCCK-16, metal not drawn]
SiOH-containing analog (%) ([3]; listed as [67Ga]Ga-DOTA-rhCCK-16): 56.5 ± 8.0%
remaining at 24 h, 5 µM [3]: 39.6 ± 7.9%

Structure (SMILES): CCCC[C@H](NC(=O)[C@H](Cc1c[nH]c2ccccc12)NC(=O)CNC(=O)[C@H](Cc1ccc(O)cc1)NC(=O)[C@H](C)NC(=O)CC[C@@H](NC(=O)CC[C@@H](NC(=O)CC[C@@H](NC(=O)CC[C@@H](NC(=O)CC[C@@H](NC(=O)CC[C@@H](NC(=O)CC[C@@H](NC(=O)CC[C@@H](NC(=O)[C@@H](CNC(=O)c1ccc([Si](F)(C(C)(C)C)C(C)(C)C)cc1)NC(=O)CC[C@H](C(=O)O)N1CCN(CC(=O)O)CCN(CC(=O)O)CCN(CC(=O)O)CC1)C(=O)O)C(=O)O)C(=O)O)C(=O)O)C(=O)O)C(=O)O)C(=O)O)C(=O)O)C(=O)N[C@@H](CC(=O)O)C(=O)N[C@@H](Cc1ccccc1)C(N)=O [(R)-DOTAGA-rhCCK-18]
IC50 (CCK-2R): 20.4 ± 2 nM

Structure (SMILES): CCCC[C@H](NC(=O)[C@H](Cc1c[nH]c2ccccc12)NC(=O)CNC(=O)[C@H](Cc1ccc(O)cc1)NC(=O)[C@H](C)NC(=O)CC[C@@H](NC(=O)CC[C@@H](NC(=O)CC[C@@H](NC(=O)CC[C@@H](NC(=O)CC[C@@H](NC(=O)CC[C@@H](NC(=O)CC[C@@H](NC(=O)CC[C@@H](NC(=O)[C@@H](CNC(=O)c1ccc([Si](F)(C(C)(C)C)C(C)(C)C)cc1)NC(=O)CN1CCN(CC(=O)O)CCN(CC(=O)O)CCN(CC(=O)O)CC1)C(=O)O)C(=O)O)C(=O)O)C(=O)O)C(=O)O)C(=O)O)C(=O)O)C(=O)O)C(=O)N[C@@H](CC(=O)O)C(=O)N[C@@H](Cc1ccccc1)C(N)=O [[^18F]F-[^natLu]Lu-DOTA-rhCCK-18] [metal not drawn]
logD7.4 ([1]; n-octanol/PBS pH 7.4): −2.71 ± 0.04

Structure (SMILES): CCCC[C@H](NC(=O)[C@H](Cc1c[nH]c2ccccc12)NC(=O)CNC(=O)[C@H](Cc1ccc(O)cc1)NC(=O)[C@H](C)NC(=O)CC[C@@H](NC(=O)CC[C@@H](NC(=O)CC[C@@H](NC(=O)CC[C@@H](NC(=O)CC[C@@H](NC(=O)CC[C@@H](NC(=O)CC[C@@H](NC(=O)CC[C@@H](NC(=O)[C@@H](CNC(=O)c1ccc([Si](F)(C(C)(C)C)C(C)(C)C)cc1)NC(=O)CN1CCN(CC(=O)O)CCN(CC(=O)O)CCN(CC(=O)O)CC1)C(=O)O)C(=O)O)C(=O)O)C(=O)O)C(=O)O)C(=O)O)C(=O)O)C(=O)O)C(=O)N[C@@H](CC(=O)O)C(=O)N[C@@H](Cc1ccccc1)C(N)=O [[^67Ga]Ga-DOTA-rhCCK-18, metal not drawn]
SiOH-containing analog (%) [3]: 53.6 ± 6.6%
remaining at 24 h, 5 µM [3]: 43.7 ± 6.9%
